Measurements taken from patent US20030148483A1, “Method of removing residual enzymes in enzyme microencapsulation” (priority 2002, published 2003).

Key:
uncapsulated lactase = test: Assay for the activity of uncapsulated lactase after ozone treatment (ONPG, absorbance at 420 nm); format: biochemical; details: initial activity 100%
Method: After centrifuging the dispersion fluid of microcapsules prepared by ozone treatment in Examples 2 to 4 at 24,900×g for 10 min, the resulting supernatants were assayed for activity of uncapsulated lactase.
A portion of each of the supernatants was primarily filtered using Whatman No. 540 (Whatman International Ltd., Maidstone, England), and then further filtered using an 1 μm membrane filter (Whatman International Ltd., Maidstone, England).
Thereafter, 0.5 ml of the filtered supernatant was mixed with 2 ml of a solution of 0.05 M ONPG (Ortho-nitrophenol-β-D-galactopyranoside, Sigma Chemical Co., St. Louis, Mo. USA) preheated at 37° C. for 15 min, followed by incubation for 20 min at 37° C. After 20 min, the reaction was terminated with adding 0.5 ml of a 0.5 M Na2CO3 solution (Shinoyo Pure Chemical Co., Ltd., Osaka, Japan) thereto.
Absorbance at 420 nm was measured using a spectrophotometer (Beckman Du 650 spectrophotometer; Beckman Instrument, Inc, Fullerton, Calif., USA), and the results are given in FIG. 2.

Staphylococcus aureus = test: Effect of ozone treatment on growth of microorganisms (colony count); format: cell-based; details: ozone 10 ppm, 2° C.; for viability: 0 min = 100
Method: (§1) Microorganisms were treated with ozone of 10 ppm, at which concentration much of untrapped lactase loses its activity, while microencapsulated lactase retains effective activity, and effect of ozone on the growth of microorganisms was investigated.
(§2) Pathogenic microorganisms found especially in food, including Escherichia coli, Bacillus subtilis, Staphylococcus aureus, Salmonella typhimurium, Pseudomonas aeruginosa, and Enterobacter aerogenes, were obtained from Korean Culture Center of Microorganisms (Seoul, Korea) and stored in broth containing 50% glycerol at −70° C. until use. The five strains, except S. aureus, were cultured in nutrient broth (NB), and S. aureus was cultured in tryptic soy broth (TSB) for 24 hours at 37° C.
(§3) Trace amounts of the cultured microorganisms were mixed with the dispersion fluid of microcapsules, followed by treatment of ozone of 10 ppm at 2° C. under a flow rate of 10 L/min using an ozone generator.
(§4) After being serially diluted, the ozone-treated microorganisms were plated onto nutrient agar broth.

Salmonella typhimurium = test: as above; format: cell-based; details: ozone 10 ppm, 2° C.; for viability: 0 min = 100
Method: as §1, §2, §3, §4

Escherichia coli = test: as above; format: cell-based; details: ozone 10 ppm, 2° C.; for viability: 0 min = 100
Method: as §1, §2, §3, §4

Bacillus subtilis = test: as above; format: cell-based; details: ozone 10 ppm, 2° C.; for viability: 0 min = 100
Method: as §1, §2, §3, §4

Enterobacter aerogenes = test: as above; format: cell-based; details: ozone 10 ppm, 2° C.; for viability: 0 min = 100
Method: as §1, §2, §3, §4

Pseudomonas aeruginosa = test: as above; format: cell-based; details: ozone 10 ppm, 2° C.; for viability: 0 min = 100
Method: as §1, §2, §3, §4

[1] = test system: microencapsulated lactase; test: Effect of ozone treatment on the activity of microencapsulated lactase (heating method, ONPG); format: biochemical; details: initial activity 100%
Method: With an aim to investigate effect of ozone treatment on microencapsulated lactase, microcapsules containing lactase were collected from the ozone-treated dispersion fluid prepared in Examples 2 to 4 by centrifugation, and the activity of microencapsulated lactase was measured using a heating method among yield analysis methods disclosed in Korean Pat. No. 88465.
0.5 ml of the resulting dispersion fluid containing microcapsules was mixed with 2 ml of 0.05 M ONPG pre-heated at 50° C. for 10 min. After 5 min, the reaction was terminated with adding 0.5 ml of 0.5M Na2CO3 thereto, and absorbance at 420 nm was measured using a spectrophotometer (Beckman Du 650 spectrophotometer, Beckman Instrument, Inc., Fullerton, Calif., USA). The results are given in FIG. 3, where the initial activity of lactase is 100%.
Yield of microcapsule=1−Activity of uncapsulated lactase/ Initial activity of lactase×100

Compound: O=[O+][O-] [ozone]
- activity of lactase (uncapsulated) (uncapsulated lactase; 1 ppm of ozone, 1 min): about 94.3%
- activity of lactase (uncapsulated) (uncapsulated lactase; 1 ppm of ozone, 5 min): 56.4%
- activity of lactase (uncapsulated) (uncapsulated lactase; 1 ppm of ozone, 10 min): 26.5%
- activity of lactase (uncapsulated) (uncapsulated lactase; 5 ppm of ozone, 1 min): 82%
- activity of lactase (uncapsulated) (uncapsulated lactase; 5 ppm of ozone, 5 min): 42.8%
- activity of lactase (uncapsulated) (uncapsulated lactase; 5 ppm of ozone, 10 min): 20%
- activity of lactase (uncapsulated) (uncapsulated lactase; 10 ppm of ozone, 1 min): 57.8%
- activity of lactase (uncapsulated) (uncapsulated lactase; 10 ppm of ozone, 5 min): 32.8%
- activity of lactase (uncapsulated) (uncapsulated lactase; 10 ppm of ozone, 10 min): 9.7%
- colonies counted (Staphylococcus aureus; treatment time 0.5 min): 1.0 × 10^8 CFU/ml
- viability (Staphylococcus aureus; treatment time 0.5 min): (15) %
- colonies counted (Staphylococcus aureus; treatment time 1 min): 6.4 × 10^7 CFU/ml
- viability (Staphylococcus aureus; treatment time 1 min): (9.4) %
- colonies counted (Staphylococcus aureus; treatment time 5 min): 1.2 × 10^7 CFU/ml
- viability (Staphylococcus aureus; treatment time 5 min): (1.8) %
- colonies counted (Staphylococcus aureus; treatment time 10 min): 1.1 × 10^5 CFU/ml
- viability (Staphylococcus aureus; treatment time 10 min): (0.01) %
- colonies counted (Salmonella typhimurium; treatment time 0.5 min): 8.4 × 10^8 CFU/ml
- viability (Salmonella typhimurium; treatment time 0.5 min): 34%
- colonies counted (Salmonella typhimurium; treatment time 1 min): 1.1 × 10^7 CFU/ml
- viability (Salmonella typhimurium; treatment time 1 min): 0.4%
- colonies counted (Salmonella typhimurium; treatment time 5 min): 1.5 × 10^6 CFU/ml
- viability (Salmonella typhimurium; treatment time 5 min): (0.06) %
- colonies counted (Salmonella typhimurium; treatment time 10 min): 0 CFU/ml
- viability (Salmonella typhimurium; treatment time 10 min): (0) %
- colonies counted (Escherichia coli; treatment time 0.5 min): 8.9 × 10^7 CFU/ml
- viability (Escherichia coli; treatment time 0.5 min): 3.7%
- colonies counted (Escherichia coli; treatment time 1 min): 3.1 × 10^7 CFU/ml
- viability (Escherichia coli; treatment time 1 min): (1.3) %
- colonies counted (Escherichia coli; treatment time 5 min): 9.0 × 10^6 CFU/ml
- viability (Escherichia coli; treatment time 5 min): (0.3) %
- colonies counted (Escherichia coli; treatment time 10 min): 0 CFU/ml
- viability (Escherichia coli; treatment time 10 min): (0) %
- colonies counted (Bacillus subtilis; treatment time 0.5 min): 9.6 × 10^7 CFU/ml
- viability (Bacillus subtilis; treatment time 0.5 min): 60%
- colonies counted (Bacillus subtilis; treatment time 1 min): 2.2 × 10^7 CFU/ml
- viability (Bacillus subtilis; treatment time 1 min): (14) %
- colonies counted (Bacillus subtilis; treatment time 5 min): 6.0 × 10^6 CFU/ml
- viability (Bacillus subtilis; treatment time 5 min): (3.7) %
- colonies counted (Bacillus subtilis; treatment time 10 min): 0 CFU/ml
- viability (Bacillus subtilis; treatment time 10 min): (0) %
- colonies counted (Enterobacter aerogenes; treatment time 0.5 min): 5.4 × 10^6 CFU/ml
- viability (Enterobacter aerogenes; treatment time 0.5 min): 38%
- colonies counted (Enterobacter aerogenes; treatment time 1 min): 1.0 × 10^6 CFU/ml
- viability (Enterobacter aerogenes; treatment time 1 min): (7.1) %
- colonies counted (Enterobacter aerogenes; treatment time 5 min): 2.4 × 10^5 CFU/ml
- viability (Enterobacter aerogenes; treatment time 5 min): (1.7) %
- colonies counted (Enterobacter aerogenes; treatment time 10 min): 0 CFU/ml
- viability (Enterobacter aerogenes; treatment time 10 min): (0) %
- colonies counted (Pseudomonas aeruginosa; treatment time 0.5 min): 1.2 × 10^8 CFU/ml
- viability (Pseudomonas aeruginosa; treatment time 0.5 min): (35) %
- colonies counted (Pseudomonas aeruginosa; treatment time 1 min): 7.5 × 10^7 CFU/ml
- viability (Pseudomonas aeruginosa; treatment time 1 min): 22%
- colonies counted (Pseudomonas aeruginosa; treatment time 5 min): 3.6 × 10^6 CFU/ml
- viability (Pseudomonas aeruginosa; treatment time 5 min): 1%
- colonies counted (Pseudomonas aeruginosa; treatment time 10 min): 0 CFU/ml
- viability (Pseudomonas aeruginosa; treatment time 10 min): (0) %
- activity of lactase entrapped into microcapsules ([1]; 1 ppm of ozone, 1 min): about 97%
- activity of lactase entrapped into microcapsules ([1]; 1 ppm of ozone, 5 min): 91%
- activity of lactase entrapped into microcapsules ([1]; 1 ppm of ozone, 10 min): 74%
- activity of lactase entrapped into microcapsules ([1]; 5 ppm of ozone, 1 min): 96%
- activity of lactase entrapped into microcapsules ([1]; 5 ppm of ozone, 5 min): 82%
- activity of lactase entrapped into microcapsules ([1]; 5 ppm of ozone, 10 min): 67%
- activity of lactase entrapped into microcapsules ([1]; 10 ppm of ozone, 1 min): 93%
- activity of lactase entrapped into microcapsules ([1]; 10 ppm of ozone, 5 min): 79%
- activity of lactase entrapped into microcapsules ([1]; 10 ppm of ozone, 10 min): 65%
